From PubChem BioAssay (NCI)
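Values below derive from 48-hour exposures of cells grown in 96-well plates, with endpoints linearly interpolated between the two concentrations bracketing the appropriate inhibition level. Definition used: TGI = concentration required for complete inhibition of growth.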

What was measured:
Assay in all cases: DTP human tumour cell line panel, 48 h
NCI-H522 lung = system: NCI-H522 lung
NCI/ADR-RES ovarian = system: NCI/ADR-RES ovarian
SW-620 colon = system: SW-620 colon
SR leukemia = system: SR leukemia
K-562 leukemia = system: K-562 leukemia
DU-145 prostate = system: DU-145 prostate
SF-539 CNS = system: SF-539 CNS
PC-3 prostate = system: PC-3 prostate
HOP-92 NSCLC = system: HOP-92 NSCLC
RXF 393 renal = system: RXF 393 renal
OVCAR-4 ovarian = system: OVCAR-4 ovarian
TK-10 renal = system: TK-10 renal
HL-60(TB) leukemia = system: HL-60(TB) leukemia
EKVX NSCLC = system: EKVX NSCLC

Measured: TGI

NC(CCOCCP(=O)(O)O)C(=O)O (centres undefined)
> 100 µM: all assays above
